SMILES strings stand for the structures. Values after ≈ are worked out from the molar mass of the structure shown.

In assay [1] the test system is S. aureus IFO 13276. The assay is described as follows: Antibacterial test (minimum inhibitory concentration), method designated by Japan Society of Chemotherapy. Type of assay: cell-based, Staphylococcus aureus. To be noted: for MIC: Staphylococcus aureus, IFO13276, S. aureus IFO 13276, Gram's stain +, 10^6 cells/ml. On the procedure: (§1) Antibacterial test was carried out according to the method designated by Japan Society of Chemotherapy in Chemotherapy, 29 (1): 76 (1981), the content of which is herein incorporated by reference. Each of the compounds obtained in Examples 2, 4 and 7 is tested. As a control drug, 1-ethyl-6,8-difluoro-1,4-dihydro-4-oxo-7-(1-piperazinyl)-3-quinolinecarboxylic acid was used, which is represented by formula IV when R1 is hydrogen, R3 is ethyl, R4 and R5 are hydrogen, and Z is piperazinyl.
(§2) The results are shown in Table 1 in terms of minimum inhibitory concentration (MIC).

Assay [2] relates to P. aeruginosa IFO 13275. Described as above. To be noted: Pseudomonas aeruginosa, IFO13275; P. aeruginosa IFO 13275, Gram's stain -, 10^6 cells/ml. Type of assay: cell-based. On the procedure: as §1, §2

Regarding `CCn1cc(C(=O)O)c(=O)c2cc(F)c(N3CCNCC3)c(F)c21` [Control drug, 1-ethyl-6,8-difluoro-1,4-dihydro-4-oxo-7-(1-piperazinyl)-3-quinolinecarboxylic acid, reference compound], the MIC (commonly the lowest concentration that inhibits growth of the organism) is 0.39 µg/mL (≈ 1.16 µM) in assay [1] and less than 0.025 µg/mL in assay [2].

With `CCn1cc(C(=O)O)c(=O)c2cc(F)c(N3CCN(S(=O)(=O)c4ccc(N)cc4)CC3)c(F)c21` [Example 2, 1-Ethyl-6,8-difluoro-1,4-dihydro-4-oxo-7-[4-(4-aminobenzenesulfonyl)-1-piperazinyl]-3-quinolinecarboxylic acid], the MIC is 0.2 µg/mL (≈ 0.406 µM) in assay [1] and less than 0.025 µg/mL in assay [2]. Besides, the “antibacterial activity compared with the control drug (in words)” value in assay [1] (against S. aureus, versus control drug) is given as “more potent antibacterial activity than the control drug”.

Turning to `CCn1cc(C(=O)O)c(=O)c2cc(F)c(N3CCN(S(=O)(=O)c4ccc(C)cc4)CC3)c(F)c21` [Example 4, 1-Ethyl-6,8-difluoro-1,4-dihydro-4-oxo-7-[4-(4-methylbenzenesulfonyl)-1-piperazinyl]-3-quinolinecarboxylic acid], the MIC in assay [1] was 0.78 µg/mL (≈ 1.59 µM); in assay [2], less than 0.025 µg/mL.

Turning to `CCn1cc(C(=O)O)c(=O)c2cc(F)c(N3CCN(S(=O)(=O)c4ccc(F)cc4)CC3)c(F)c21` [Example 7, 1-Ethyl-6,8-difluoro-1,4-dihydro-4-oxo-7-[4-(4-fluorobenzenesulfonyl)-1-piperazinyl]-3-quinolinecarboxylic acid], the MIC in assay [1] is 0.78 µg/mL (≈ 1.57 µM); in assay [2] it was less than 0.025 µg/mL.
